Test results as given in US20160120802A1, “ORALLY-DISINTEGRATING OSELTAMIVIR TABLET AND METHOD FOR PREPARING THE SAME” (priority 2013, published 2016).

Test system: pigeons
Experiment: Pigeons vomiting model
Conditions: intragastric, equivalent to 30 mg oseltamivir per kg
Description: 1. Experimental Animal: Healthy Pigeons (Both Males and Females were Operable), 350±50 g of Weights, Common Grades, and Purchased from a Breeding Base.
70 healthy pigeons were randomly divided into 7 groups and adaptively fed with normal diets for 1 week before the experiment. Diets were prohibited within 4 hrs before the experiment, the room temperature was maintained at between 22 and 24° C., and the feeding environment was kept clean and well ventilated. The pigeons were administered with drugs according to the following groups, the administration dosage corresponded to 30 mg oseltamivir per kg of the pigeon's weight, or the equivalent amount of the starch.
Contrast group A, one group, administered with the raw material of oseltamivir with a dosage equivalent to 30 mg of oseltamivir per kg of the pigeon's weight.
Contrast group B, one group, administered with the polyacrylic acid resin IV with a dosage equivalent to 30 mg of the starch per kg of the pigeon's weight.
Contrast group D, one group, administered with the commercial oseltamivir phosphate capsules manufactured by Roche with a dosage equivalent to 30 mg of oseltamivir per kg of the pigeon's weight.
Observation indexes: latent periods of vomiting (the period from the administration to the first vomiting), vomiting times (occurrences of the vomiting after the drug administration, each occurrence of the vomiting refers to the duration from neck stretching, mouth opening, shrugging, and abdominal contraction of the pigeons to recovery of the quiet state of the pigeons), and vomiting frequencies (referring to the times of neck stretching, mouth opening, shrugging, and abdominal contraction of the pigeons).
The pigeons in each group were taken drugs by intragastric administration with a dosage equivalent to 30 mg of oseltamivir per kg of the pigeon's weight. The latent periods of vomiting (min) after the intragastric administration, as well as the vomiting times and the vomiting frequency in 5 hrs after the intragastric administration were recorded.
In each group, the number of the vomiting pigeons (n) was calculated. For the vomiting pigeons (including vomiting with vomitus and dry vomiting in the absence of vomitus), the latent period of vomiting (min, x±s), the average vomit times, and the average vomit frequencies were calculated, and results were listed in the following table 2.

Q: With `CCOC(=O)C1=CC(OC(CC)CC)C(NC(C)=O)C(N)C1` (stereo not shown) [Contrast group A] as the compound, how does the “Note (kind of vomiting)” value read?
A: Seven times of vomiting

Q: And the “Latent period for vomiting” value (vomiting pigeons, x ± s)?
A: 18.9 ± 5.4 min

Q: What about the “Average vomiting times (within 5 hrs)” value (within 5 hrs) of the same compound?
A: 11.1

Q: And the Vomiting frequencies (within 5 hrs, x ± s)?
A: 15.8 ± 2.1 times
